From patent publication US11976051B1, “N′-(2-(5-(4-chlorophenyl)-1,3,4-oxadiazol-2-ylthio)acetoxy)-2-naphthimidamide as an antimicrobial compound” (KING FAISAL UNIVERSITY, priority 2023, dated 2024)

Assays:
Bacillus cereus = experiment: Agar plate disc-diffusion, antibacterial activity; type: cell-based; details: nutrient agar, 37° C., 48 h
Procedure: (§1) The agar plate disc-diffusion method was applied. […] The discs were then placed onto the surface of agar plates (nutrient agar for bacteria and Sabouraud's dextrose agar for fungi) seeded with the test organism. Each plate contained 15 mL of the agar medium, previously seeded with 0.2 mL of the broth culture of each organism pregrown for 18 h. The plates were incubated at 37° C. for 48 h, and 72 h for fungi. The inhibition zones was measured in mm. Discs impregnated with DMSO were used as a control, and its inhibition zone was subtracted from the tested compound actual inhibition zone.
(§2) The antibacterial activity was screened against gram positive bacteria namely Bacillus cereus and Staphylococcus aureus and gram-negative bacterial strains namely Pseudomonas aeruginosa and Escherichia coli, while the antifungal activity was screened against Aspergillus flavus and Chrysosporium keratinophilum as shown in Table 1 and 2.

Pseudomonas aeruginosa = experiment: Agar plate disc-diffusion, antibacterial activity; type: cell-based; details: nutrient agar, 37° C., 48 h
Procedure: as §1, §2

Staphylococcus aureus = experiment: Agar plate disc-diffusion, antibacterial activity; type: cell-based; details: nutrient agar, 37° C., 48 h
Procedure: as §1, §2

Escherichia coli = experiment: Agar plate disc-diffusion, antibacterial activity; type: cell-based; details: nutrient agar, 37° C., 48 h
Procedure: (§3) The agar plate disc-diffusion method was applied. Sterilized filter papers (6 mm in diameter) were wetted with […] of a solution of N′-(2-(5-(4-chlorophenyl)-1,3,4-oxadiazol-2-ylthio)acetoxy)-2-naphthimidamide (3) to be tested, containing 10 mg/mL in DMSO, and the discs were allowed to air dry. The discs were then placed onto the surface of agar plates (nutrient agar for bacteria and Sabouraud's dextrose agar for fungi) seeded with the test organism. Each plate contained 15 mL of the agar medium, previously seeded with 0.2 mL of the broth culture of each organism pregrown for 18 h. The plates were incubated at 37° C. for 48 h, and 72 h for fungi. The inhibition zones was measured in mm. Discs impregnated with DMSO were used as a control, and its inhibition zone was subtracted from the tested compound actual inhibition zone.
as §2

Aspergillus flavus = experiment: Agar plate disc-diffusion, antifungal activity; type: cell-based; details: Sabouraud's dextrose agar, 72 h
Procedure: as §3, §2

[1] = tested on: Chrysosporium keratinophilum; experiment: Agar plate disc-diffusion, antifungal activity; type: cell-based; details: Sabouraud's dextrose agar, 72 h
Procedure: as §1, §2

[2] = A = concentration of comp. = 10 mg/mL
[3] = B = concentration of comp. = 30,000 μL
[4] = C = concentration of comp. = 50,000 μL
[5] = A = concentration of comp. = 10,000 μg/mL

In the case of N/C(=N\OC(=O)CSc1nnc(-c2ccc(Cl)cc2)o1)c1ccc2ccccc2c1 [Compound 3, N′-(2-(5-(4-chlorophenyl)-1,3,4-oxadiazol-2-ylthio)acetoxy)-2-naphthimidamide], the “inhibition zone, Bacillus Cereus” value (Bacillus cereus; [2]) is reported as 31 mm, the “inhibition zone, Bacillus Cereus” value (Bacillus cereus; [3]) is reported as 36 mm and the “inhibition zone, Bacillus Cereus” value (Bacillus cereus; [4]) is reported as 43 mm. For the same compound, the “inhibition zone, Pseudomonas aeruginosa” value (Pseudomonas aeruginosa; [2]) was 26 mm, the “inhibition zone, Pseudomonas aeruginosa” value (Pseudomonas aeruginosa; [3]) was 33 mm and the “inhibition zone, Pseudomonas aeruginosa” value (Pseudomonas aeruginosa; [4]) was 39 mm. For the same compound, the “inhibition zone, Staphylococcus aureus” value (Staphylococcus aureus; [2]) was 17 mm, the “inhibition zone, Staphylococcus aureus” value (Staphylococcus aureus; [3]) was 24 mm and the “inhibition zone, Staphylococcus aureus” value (Staphylococcus aureus; [4]) was 29 mm. For the same compound, the “inhibition zone, Escherichia coli” value (Escherichia coli; [5]) was 35 mm, the “inhibition zone, Escherichia coli” value (Escherichia coli; [3]) was 41 mm and the “inhibition zone, Escherichia coli” value (Escherichia coli; [4]) was 47 mm. For the same compound, the “inhibition zone, Aspergillus flavus” value (Aspergillus flavus; A = concentration of comp. = 10,000 μL) was 25 mm, the “inhibition zone, Aspergillus flavus” value (Aspergillus flavus; [3]) was 28 mm and the “inhibition zone, Aspergillus flavus” value (Aspergillus flavus; [4]) was 37 mm. For the same compound, the “inhibition zone, Chrysosporium keratinophilum” value [1, 5] was 23 mm, the “inhibition zone, Chrysosporium keratinophilum” value [1, 3] was 29 mm and the “inhibition zone, Chrysosporium keratinophilum” value [1, 4] was 38 mm. It also gave a melting point of 181 to 182 °C.
